Assay [1] has as its target apamin binding sites / apamin receptors (apamin-sensitive potassium channels), calves' cerebral membrane. The assay can be described thus: Binding of 125I-apamin to calves' cerebral membrane. Particulars: displacement of 125I-apamin (30 pM), calf hippocampus membranes, 60 min on ice. As to the method: 1) Binding of ^125 I-apamin to calves' cerebral membrane
Calf brains were obtained from the local abattoir. The hippocampus was prepared on ice and a membrane suspension was made up by homogenization twice in buffer (100 mM Tris-HCl, KCl 5 mM, pH 7.4) and centrifugation at 43,000×g. In a total volume of 500 μl, the incubation mixture contained 200 μg of membrane protein, 30 pM ^125 I-apamin and test substances in the concentration range 1×10^-9 to 1×10^-4 M. The non-specific binding of ^125 I-apamin was determined in the presence of 1×10^-7 M unlabeled apamin.
After preincubation for 30 min at room temperature (test substances and membrane homogenate), the samples were placed on ice for 10 min before the radioligand was added. The main incubation time was 60 min on ice. When the reaction time had elapsed, an excess of ice-cooled incubation buffer was added to each sample and the mixture was filtered with suction through cellulose acetate/nitrate membrane filters. The amount of bound ^125 I-apamin was measured with a gamma counter.
In general terms: Displacement assays read how much labelled ligand stays bound in the presence of the test substance.

Assay [2] deals with apamine-sensitive potassium channels in PC12 cells. The assay can be described thus: Non-radioactive Rb+ efflux assay for the identification of potassium channel modulators (PC12 cells). Conditions: Rattus norvegicus, PC-12, 10 min, 10 min stimulation with 50 mM KCl, read-out: % inhibition of the Rb efflux at a test concentration of 10 μM. The format is cell-based. On the procedure: 2) Non-radioactive Rb^+ efflux assay for the identification of potassium channel modulators
The cellular potassium in PC12 cells is exchanged with rubidium, which is not present in the cells. This exchange is performed by incubating the cells over a period of 4 h in a physiological buffer containing 5.4 mM RbCl without KCl. This rubidium subsequently serves as a tracer for potassium. The cells laden with Rb^+ in this way are washed three times and then stimulated by depolarization with 50 mM KCl to open potassium channels (10 min), causing Rb^+ to flow out of the cells into the supernatant according to the concentration gradient.
The rubidium contents in the cell supernatant and in the residual cells after they have been lyzed with 1% Triton X-100 are then. determined by means of atomic absorption spectroscopy. The relative proportion of rubidium in the cell supernatant (=Rb^+ efflux) is used as a measure of the potassium channel activity.
The effect of substances on the channel activity is measured by co-incubating the test substance over the ten-minute stimulation period and determining its effect on the Rb^+ efflux in the manner described above.

As a reminder, the Ki is a measure of affinity in units of concentration, obtained from inhibition or displacement. As to `Cc1cc(NCCC(O)CCNc2cc(C)nc3ccccc23)c2ccccc2n1` [Example 14], the affinity in assay [1] corresponds to a Ki of 190 nM.

Regarding `Cc1cc(NCC(O)CNc2cc(C)nc3ccccc23)c2ccccc2n1` [Example 15], in assay [2], the inhibition at 10 µM came out at 73%.

The values above are taken from patent US5756517A, “Use of bisquinoline compounds in the treatment of cerebral disorders” (Bayer Aktiengesellschaft, priority 1996, dated 1998).
